Earlier results on one molecule are cited in patent US20130171237A1, “ARIPIPRAZOLE COMPOSITIONS AND METHODS FOR ITS TRANSDERMAL DELIVERY” (priority 2010, published 2013).

On to `O=C1CCc2ccc(OCCCCN3CCN(c4cccc(Cl)c4Cl)CC3)cc2N1` [ARPZ, Aripiprazole], for which the solubility in water result is given as “practically insoluble in water”.
